Experimental data published in patent US9359322B2, “C-linked glucuronide of N-(4-hydroxybenzyl) retinone, analogs thereof, and methods of using the same to inhibit neoplastic cell growth” (Wisconsin Alumni Research Foundation, priority 2005, dated 2016).

Key:
[1] = Terminal plasma drug levels (plasma retinoid assay, HPLC); format: in vivo, rat; settings: day 22 of treatment; 2 mmol/kg diet; ± SEM
Method: Plasma Retinoid Assay. To 500 μL of plasma was added 150 μL of ethanol containing 0.75 μg of internal standard (N-(4-chlorophenyl) retinamide). After mixing 30 sec., 500 μL of ethyl acetate was added followed by 1 min. of mixing and centrifugation for 5 minutes at 1000 rpm in an IEC CL centrifuge. The ethyl acetate layer was removed and syringe filtered through a 0.45 um filter. The ethyl acetate extraction was repeated two more times. The combined extracts were evaporated and the residue reconstituted in 100 μL of methanol. The methanol extract (20 μL) was analyzed by HPLC on a Beckman Instruments model 127 instrument equipped with a model 166 UV detector. Chromatography was done on a precolumn equipped 250×4.6 mm Bechman Ultrasphere ODS column with an 85% methanol/water mobile phase (both containing 10 mM ammonium acetate) flowing at 1 mL/min. Analysis for both internal standard and retinol was conducted at 350 nm and internal standard recoveries and retinol levels were determined by comparison with standard curves, with adjustment of the retinol level based on recovery. Recoveries of internal standard averaged ca. 78%. […] In the 4-HPR treated group, plasma levels of this retinoid were evaluated simultaneously in the same samples as above. In order to avoid interfering substances, plasma treatment retinoid levels for RA and 4-HBRCG were measured using the above system and a step gradient of 75% methanol for 15 min. followed by 85% methanol for 40 minutes.

[2] = Plasma triglyceride measurement; format: in vivo, rat; settings: 2 mmol/kg diet, 22 days; FIG. 2A
Method: Plasma Triglyceride Measurement. Bloods were drawn from anesthetized animals in the presence of EDTA as an anticoagulant, and the resulting plasma was used for the measurement of plasma “true” triglyceride levels using a kit from Sigma-Aldrich (Saint Louis, Mo.). Briefly, the total plasma triglyceride and glycerol concentrations were determined, and the glycerol component was subtracted from the total plasma triglyceride measurement to obtain the “true” serum triglyceride concentration.

[3] = Femur bone mineral content; format: in vivo, rat; settings: end of feeding study; FIG. 2B
Text: Bone Mineral Content. The femur was disarticulated from the leg, and the adhering soft tissue was removed by dissection. Femurs were scanned using the Lunar PIXImus 2 system (Model X2608, General Electric using the LUNAR software version 1.45), and control measurements were made using the small animal quality control phantom. Femurs were scanned 5 times each with re-positioning at each measure. The average value of the bone mineral content (BMC) in grams for each animal is reported as one independent measure.

RXRγ = target: T1, RXRγ (Homo sapiens, UniProt P48443); assay: Nuclear retinoid receptor binding assay, competition with [3H]9-cis RA; settings: 4-HBRCG up to 10^−4.5 M; data not shown
T1 sequence (P48443 1-463): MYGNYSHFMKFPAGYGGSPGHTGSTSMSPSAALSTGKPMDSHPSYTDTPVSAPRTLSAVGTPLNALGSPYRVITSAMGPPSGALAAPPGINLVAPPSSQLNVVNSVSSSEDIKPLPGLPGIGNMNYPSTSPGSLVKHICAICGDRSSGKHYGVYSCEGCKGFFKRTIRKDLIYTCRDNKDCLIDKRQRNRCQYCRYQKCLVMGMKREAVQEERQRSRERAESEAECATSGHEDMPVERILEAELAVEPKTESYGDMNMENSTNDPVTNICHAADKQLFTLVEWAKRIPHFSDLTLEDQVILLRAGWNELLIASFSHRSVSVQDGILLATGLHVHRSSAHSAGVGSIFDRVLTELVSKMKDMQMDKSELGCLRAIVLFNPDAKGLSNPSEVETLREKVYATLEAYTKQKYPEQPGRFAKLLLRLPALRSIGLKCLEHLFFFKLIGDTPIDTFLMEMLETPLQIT
Method: Nuclear Retinoid Receptor Binding Assay. Competition of 3 and 7 and 4-HBRCGlucose with [^3H]-all-trans-RA (4.2-4.6 nM) for binding to RARβ and RARγ and with [^3H]-9-cis RA (1.9 nM) for binding to RXRγ was determined using an in vitro ligand binding assay.^41, 42 [^3H]-all-trans-RA (40.5 Ci/mmole) or [^3H]-9-cis-RA (69.4 Ci/mmole) was added to receptor-containing extracts in the absence and presence of increasing concentrations of competing ligands at 4° C. for 3 hr. A hydroxylapatite (HAP) assay was used to separate ligand bound to receptor from that free in solution, and the radioactivity associated with the HAP pellet was measured by scintillation counting.

CYP26B1 mRNA = assay: Induction of CYP26B1 mRNA in lung (Q-PCR); format: in vivo, rat; settings: at sacrifice, retinoid-fed rats, 2 mmol/kg diet; data not shown
[4] = system: MCF-7 human breast cancer cells; assay: Growth inhibition of MCF-7 human breast cancer cells; format: cell-based; settings: 10^−5 M, 8-day period; FIG. 5
Method: Inhibition of MCF-7 human breast cancer cell growth over an 8-day period was used as a means to assess the activity of 4-HBRCG and the analog 4-HBRCGlucose.
Growth inhibition of MCF-7 human breast cancer cells. MCF-7 cells were obtained from the American Type Culture Collection, Manassas, Va. They were maintained in DMEM medium supplemented with 4 g/L glucose, 3.7 g/L sodium bicarbonate and 10% heat-inactivated fetal calf serum. Cells were passaged into 12-well plates, cultured for 24 hours, after which time they were dosed with vehicle (0.2% ethanol) or retinoids; medium was changed and fresh vehicle or retinoids were added daily. Cells were harvested and the number of live cells was assessed using fluorescein diacetate, which yields a fluorescent product upon cleavage by metabolically active cells. Using fluorescent microscopy, at least 200 cells/well were counted with a hemacytometer.

Plasma retinoid concentration (terminal plasma drug level) [1]: 0.10 ± 0.01 µg/mL
Effect on serum triglyceride concentration [2]: did not cause this undesirable effect
Effect on femur bone mineral content vs control [3]: showed no such effect
Competition for [3H]9-cis RA binding to RXR (RXRγ): almost no competition
SMILES: CC1=C(/C=C/C(C)=C/C=C/C(C)=C/C(=O)Cc2ccc(CC3OC(C(=O)O)C(O)C(O)C3O)cc2)C(C)(C)CCC1 [4-HBRCG (7), 2,6-Anhydro-7-deoxy-7-[4-(retinoylmethyl)-phenyl]-L-glycero-L-gulo-heptinoic acid]
Induction of CYP26B1 mRNA in lung (CYP26B1 mRNA): did not induce these cytochrome p450 mRNAs
Effect on number of live MCF-7 cells [4]: reduction in the number of live cells
